# Results as given in patent US8148603B2, “Transgenic ficus, method for producing same and use thereof” (The State of Israel, Ministry of Agriculture & Rural …, priority 2004, dated 2012).
# Experiments:
# Assay type in all cases: in vivo
# [1] = system: Ficus carica cv. Brown Turkey plants; assay: Herbicide resistance in control and transgenic Brown Turkey tissue culture
# Source text: The pME504 plasmid which comprises the bar gene [Streptomyces hygroscopicus bar gene conferring resistance to herbicide bialaphos (X05822) Thompson, C. J., Movva, N. R., Tizard, R., Crameri, R., Davies, J. E., Lauwereys, M. and Botterman, J. Characterization of the herbicide-resistance gene bar from Streptomyces hygroscopicus EMBO J. 6, 2519-2523 (1987)] was used to transform ‘Brown Turkey’ plants. Herbicide resistance in control and transgenic Brawn Turkey cv. tissue culture line 001 was evaluated.
# [2] = system: Ficus carica leaf explants and shoots; assay: Tolerance of non-inoculated leaf explants and of shoots to kanamycin
# Description: In order to use kanamycin as a selection agent for transformed cells, non-inoculated leaf explants from in vitro fig cultures of both cultivars Brown Turkey and Smyrna were tested for their tolerance to kanamycin. Wounded leaves were placed on a regeneration medium supplemented with kanamycin at a concentration selected from 0, 10, 25, 50, 75 and 100 mg/l. The minimal concentration for inhibition of adventitious shoot induction for cv. Brown Turkey was 25 mg/l. However with cv. […] Therefore, the concentration of 50 mg/l kanamycin was initially chosen for selection in the subsequent transformation experiments.
# Leaf explants of 3-4 weeks old in vitro propagated Ficus carica plants were wounded across the main vein and co-cultivated with the disarmed strain EHA105 harboring the plasmid pME504, comprising the genes GUS-int and npt II. Following co-cultivation with A. tumefaciens, explants were initially placed on regeneration medium supplemented with 50 mg/l kanamycin and 150 mg/l ticarcillin and cultured with their adaxial side up. The leaf explants were exposed for one week to low light intensity and then transferred to normal light. Under the selective conditions of 50 mg/l kanamycin, up to 30% of the explants of Brown Turkey and up to 50% of Smyrna formed green shoots after 4 weeks of culture. […]
# [3] = system: Ficus carica leaf explants; assay: Adventitious shoot regeneration from leaf explants; settings: control explants with TDZ only (0.5-5 mg/l); cv. Brown Turkey
# Description: Regeneration experiments were carried out initially with the cultivar Brown Turkey. To examine the effect of culture media on adventitious bud formation, the basal media MS, AP [13] and NN [14]; and various combinations of the auxins IBA and NAA (0.25-2 mg/l), NAA with the cytokinins TDZ (0.5-5 mg/l) and BA (2-5 mg/l) were examined. A control treatment with only TDZ (0.5-5 mg/l) was performed. The regeneration media contained MS basal salt mixture, supplemented with 100 mg/l myo-inositol, 1 mg/l thiamine-HCl, 2-4% sucrose (w/v) and 0.8%, agar (Sigma), at pH 5.7. The effect of the addition of 0.25% activated charcoal (AC) was also examined.
# The youngest three expanded leaves isolated from 3-4 weeks old plants were used as explants. Each leaf was wounded forming three scares perpendicular to the central vein and placed on regeneration medium with the abaxial or adaxial surface down. Minimum ten Petri dishes, each containing ten explants were used per treatment. The cultures were kept for 7 days in low light intensity (2.5 μmol/m^2 s) followed by exposure to high light intensity (40 μmol/m^2 s) at 25° C., in a 16 hL/8 hD photoperiod. Leaf explants were examined after 28 and 35 days and the percentage of explant producing shoots (regeneration capacity) and the mean of adventitious shoots formed per regenerating explant (regeneration efficacy) were recorded. […]
# [4] = system: Ficus carica shoots; assay: Root formation of regenerated shoots, rooting in liquid medium; settings: for Root formation (%) ± SE, Rooting in liquid medium: scored after 4 weeks
# Description: (§1) Two methods for rooting were examined. According to one method, each shoot was cultivated individually in a tube with root induction (RI) medium composed of half concentration MS medium (½MS) supplemented with 100 mg/l myo-inositol, 1 mg/l thiamine-HCl, 90 mg/l phloroglucinol, 2% sucrose (w/v), 0.25% activated charcoal (AC) and 0.8% agar (pH=5.7). The effect of IBA at different concentrations (0, 1, 2 mg/l) was also tested. Each treatment included 32 individual plants. According to another method, well developed shoots (up to 3-4 cm long with 3-4 expanded leaves) were directly transplanted from the proliferation medium to Rooting Cylinders (3.5 cm high×3.0 cm in diameter) with soil mixture comprising 55% granular polypropylene foam, 30% peat and 15% perlite (Tivonchem Ltd, Israel) moistened/soaked/with liquid RI medium without AC, supplemented with either 0, 1, 2 mg/l IBA. Results were scored (0=shoot with no root; 1=rotting shoot) after 4 weeks and based on 32 shoots (8 Magenta boxes with 4 cylinders) per treatment. Each experiment was repeated three times. Plantlets were cultured in closed boxes for one week in a growth chamber and then transferred for one week to a greenhouse. Then the plantlets were further transferred to a high humidity chamber without closures for additional 2 weeks for further acclimatization by decreasing the relative humidity stepwise.
# (§2) Two methods were examined to obtained root induction (Table 1). According to the first approach, each regenerated shoot was placed in a tube containing root induction medium comprising 2 mg/l IBA. Using this method, ca. 80% of the shoots formed roots. However, insufficient percentage of these plants was successfully acclimatized in the greenhouse conditions. According to the second approach, regenerated shoots were cultured directly in rooting cylinders, with or without 1 mg/l IBA. […] These plants had better hardening and growth characteristics and easier further acclimatization in the greenhouse conditions (FIG. 5).
# [5] = system: Ficus carica shoots; assay: Root formation of regenerated shoots, rooting in solid medium; settings: for Root formation (%) ± SE, Rooting in solid medium: scored after 4 weeks
# Description: as §1, §2
smiles,measurement,setting,value
"CP(=O)(O)CC[C@H](N)C(=O)O [Basta, phosphinothricin]",herbicide effect on non-transformed plants,"[1]; control Brown Turkey cv., increasing concentrations of PPT (FIG. 11)",signs of necrosis and chlorosis on basal leaves following two days and died one week later
same,herbicide effect on resistant (bar transgenic) lines,"[1]; transgenic Brown Turkey cv. tissue culture line 001, 10 ppm Basta",propagated in vitro
NC[C@H]1O[C@H](O[C@H]2[C@H](O)[C@@H](O[C@H]3O[C@H](CO)[C@@H](O)[C@H](N)[C@H]3O)[C@H](N)C[C@@H]2N)[C@H](O)[C@@H](O)[C@@H]1O [kanamycin],effect on new emerging transgenic shoots,[2]; more than 3 subcultures at 100 mg/l kanamycin on proliferation medium,inhibition of their growth and development
same,minimal concentration for inhibition of adventitious shoot induction,"[2]; non-inoculated leaf explants, cv. Brown Turkey",25 mg/L
"O=C(Nc1ccccc1)Nc1cnns1 [TDZ, N-phenyl-N′-1,2,3-thiadiazol-5-yl urea]",regeneration frequency,[3],ca. 2%
"O=C(O)CCCc1c[nH]c2ccccc12 [IBA, indol-3-butyric acid]","Root formation (%) ± SE, Rooting in liquid medium",[4]; IBA 1 mg/l,47 ± 5.43%
same,"Root formation (%) ± SE, Rooting in liquid medium",[4]; IBA 2 mg/l,81.3 ± 7.61%
same,root formation,"[4]; shoots directly in rooting cylinders, with or without 1 mg/l IBA, after 4 weeks",100%
same,"Root formation (%) ± SE, Rooting in solid medium",[5]; IBA 1 mg/l,100%
same,"Root formation (%) ± SE, Rooting in solid medium",[5]; IBA 2 mg/l,83 ± 6.27%
same,shoots that formed roots,"[5]; each shoot in a tube with root induction medium, 2 mg/l IBA",ca. 80%
